Data from patent publication US6547971B2 (priority 2000, dated 2003).
Several values for one entry are separate records, joined by “and”; a condition that tells them apart may be missing. Equal values may be shown once.

System: spores of Bacillus cereus
Type: cell-based

C[C@H](N)C(=O)O [L-alanine]
CFU: 72 and 85 | induction of spore germination (control samples A and B): did induce germination
